This is an account of results in patent publication US20030161853A1, “Methylglycinediacetic acid and deribatives thereof useful as exfoliating agents” (L'OREAL, priority 2002, published 2003).

The assay deals with corneodesmosine. The assay is described as follows: Exfoliation test by measurement of the degradation of corneodesmosines (immunoblot of stratum corneum acetone powders, antibody G36-19, 46 kDa band). It is filed as biochemical, human. To be noted: for Percentage increase in the degradation of corneodesmosine: aqueous solution containing 2% of active ingredient, pH 8.0, incubation 8 h at 34° C., relative to control without active ingredient; for % increase in the degradation of corneodesmosine: comparative chelating agents tested in the same manner as Example 1 (2% active ingredient, pH 8.0, 8 h at 34° C.). An excerpt: Exfoliation Test by Measurement of the Degradation of Corneodesmosines
This Example studies the capacity of trisodium methylglycine diacetate to promote exfoliation by the degradation of corneodesmosines.
Corneodesmosine is one of the majority markers of exfoliation in the corneodesmosome. It is studied by immunoblotting after separation by electrophoresis and transfer to a membrane. […] The murine monoclonal antibody G36-19 is specific for corneodesmosine; it belongs to a series of antibodies directed against epidermal differentiation antigens, produced after the immunization of a mouse with a human plantar horny layer homogenate, and then characterized (Serre G. et al, J. Invest. Dermatol. 1991, 97(6), 1061-72).
Varnish strippings are performed on the lower legs of volunteers (modification of the procedure of Lundström A. and Egelrud T., Acta Derm. Venereol. (stockh) 71, 471-474, 1991). The nylon-varnish leaves associated with the corneocytes are immersed in acetone (1 ml/cm^2) to detach the corneocytes. The mixture is filtered then rinsed three times with the same volume of acetone in order to remove all traces of varnish. Finally, the mixture is dried under vacuum:
acetone-containing powders of stratum corneum are thus obtained.
The acetone-containing powders are divided up into 1 mg aliquots. 100 μl of aqueous solutions containing 2% of active ingredient, adjusted to pH 8.0, are added. Controls without active ingredient are prepared under the same conditions. Two incubation times are studied: t=0 and t=8 h. In the latter case, incubation takes place at 34° C. with agitation.
After incubation, the mixtures are centrifuged for 10 min at 10,000 g. The supernatant is removed and replaced with 100 μl of Laemmli buffer (0.0625 M Tris/HCl pH 6.8, 2% SDS, 200 mM DTT, 10% glycerol) for extraction of the proteins. The mixture is boiled for 10 min at 100° C. and then ground in a Potter mill. The mixture is centrifuged for 10 min at 10,000 g and the supernatant is then collected. It contains the corneodesmosomal proteins.
The total proteins are assayed by Bradford's method (Biorad kit). This allows an adjustment of the samples to 0.6 mg/ml and a true comparison of the treatments. The samples together with a Rainbow low-molecular standard (Amersham Pharmacia Biotech), in a ratio of ⅓, are separated by electrophoresis on 12% acrylamide gel for ½ h at 100 V and then for 1 h at 200 V. After electrophoresis, the proteins are transferred to an Immobilon-P membrane (Millipore) for 3 h at 60 V. The membrane is then incubated for 2 times 15 min in TBS-TL buffer (Tris 25 mM, 0.15 M NaCl pH 7.2, 0.05% Tween 20, 0.5% skimmed milk powder) to block the non-specific sites. Incubation with the antibody G36-19, in a ratio of 1/12,500, is performed overnight at 4° C. After two rinses of 5 min in TBS-TL, the membrane is incubated with an IG(H+L) anti-mouse goat antibody/peroxidase conjugate (Biorad), in a ratio of 1/4000, for 1 h 30 min at room temperature. After several rinses of 5 min in TBS-TL and then TBS (without milk or Tween), the membrane is incubated for 1 min in 10 ml of ECL reagent (Amersham Pharmacia Biotech). The chemiluminescence of the corneodesmosine bands is measured with FluorS Multimager (Biorad). The 46 kDa band is quantified using the Quantity-one software (Biorad).
Glycine is used as a reference compound in this study, it having been shown in patent application EP-A2-0 852 949 (Shiseido) that glycine promotes the degradation of desmoglein (corneodesmosomal protein). […]
Background: In western blotting, separated proteins are transferred to a membrane and probed.

Take `CC(C(=O)[O-])N(CC(=O)[O-])CC(=O)[O-].[Na+].[Na+].[Na+]` (centres unmarked) [Trisodium methylglycine diacetate, trisodium methylglycine diacetate]: the “Percentage increase in the degradation of corneodesmosine” value is 59%. For the same molecule, where the note is “2% active ingredient, pH 8.0, 8 h at 34° C.”, the “effect on the degradation of corneodesmosines (in words)” value is “promotes the degradation of corneodesmosines”. Regarding `N=C(CC(=O)[O-])C(=O)[O-].[Na+].[Na+]` [Na iminosuccinate, sodium iminosuccinate], the “% increase in the degradation of corneodesmosine” value was −79%. As to `CCCCCCCCCCCC(=O)N(CCN(CC(=O)O)CC(=O)O)CC(=O)O` [Lauroylethylenediaminetriacetic acid, lauroylethylenediaminetriacetic acid], the “% increase in the degradation of corneodesmosine” value is reported as −80%. On to `NCC(=O)O` [Glycine], for which the “Percentage increase in the degradation of corneodesmosine” value was determined as 30%.
